Laboratory results as given in ChEMBL document CHEMBL4602729, “O-Alkyl Hydroxamates Display Potent and Selective Antileishmanial Activity” (J Med Chem, 2020).
pIC50: −log10 of the molar value. Each block holds one compound with its values, some of them ahead of it. The source made the active and inactive calls. The calls are words filed in the database; no cut-off is given here.

Columns and labels:
Leishmania infantum [1] = assay: Antileishmanial activity against Leishmania infantum MON-1 intracellular amastigotes infected in Swiss mouse BMDM measured after 48 hrs by Giemsa staining based optical microscopic analysis; type: functional, organism-based
[2] = (§1) Cytotoxicity against Swiss mouse BMDM assessed as reduction in cell viability measured after 72 hrs by tryphan blue assay; type: cell-based; conditions: Swiss, BMDM
[3] = (§2) Cytotoxicity against mouse L929 cells assessed as reduction in cell viability measured after 72 hrs by tryphan blue assay; type: cell-based; conditions: L929 cells
Leishmania infantum [4] = assay: Antileishmanial activity against Leishmania infantum MON-1 promastigotes assessed as reduction in parasite viability at 100 uM measured after 48 hrs by MTT assay; type: functional, organism-based
[5] = Selectivity index, ratio of CC50 for mouse L929 cells to IC50 for Leishmania tropica MON-102 intracellular amastigotes; type: toxicity, cell-based
Leishmania donovani = assay: Antileishmanial activity against Leishmania donovani MON-2 intracellular amastigotes; type: functional, organism-based
[6] = Selectivity index, ratio of CC50 for mouse L929 cells to IC50 for Leishmania donovani MON-2 intracellular amastigotes; type: toxicity, cell-based
Leishmania major = assay: Antileishmanial activity against Leishmania major MON-4 intracellular amastigotes; type: functional, organism-based
Leishmania tropica = assay: Antileishmanial activity against Leishmania tropica MON-102 intracellular amastigotes; type: functional, organism-based
[7] = Selectivity index, ratio of CC50 for mouse L929 cells to IC50 for Leishmania major MON-4 intracellular amastigotes; type: toxicity, cell-based
[8] = Selectivity index, ratio of CC50 for mouse L929 cells to IC50 for Leishmania infantum MON-1 intracellular amastigotes infected in Swiss mouse BMDM; type: toxicity, cell-based
Leishmania infantum [9] = assay: (§3) Antileishmanial activity against Leishmania infantum MON-1 promastigotes infected in BALB/c mouse assessed as reduction in spleen parasite load at 104 mg Sbv/kg, ip administered daily for 14 days starting from 28 days post infection measured post last dose by Taqman qRT-PCR analysis relative to control; type: functional, organism-based; set-up: scale not given: the % may be the effect or the level left
Leishmania infantum [10] = assay: as §3, with “liver” for “spleen”; type: functional, organism-based; set-up: scale not given: the % may be the effect or the level left
L929 = assay: as §2; type: cell-based; conditions: l929, 72 h
[11] = Toxicity in BALB/c mouse infected with Leishmania infantum MON-1 promastigotes assessed as change in AST level at 104 mg Sbv/kg, ip administered daily for 14 days starting from 28 days post infection using PLGA nanoparticle incorporated compound; type: organism-based; conditions: in vivo
BMDM = assay: as §1; type: cell-based; conditions: bmdm, 72 h
[12] = Leishmania infantum, MON-1, BMDM, 48 h

pIC50 (Leishmania infantum [1]; [12]): 5.44
Compound: O=C(CCCCCCN1C(=O)c2ccc(C#Cc3ccccc3)cc2S1(=O)=O)NOC(c1ccccc1)(c1ccccc1)c1ccccc1
CC50 at 72 h [2]: > 100 µM

pIC50 (Leishmania infantum [1]; [12]): 6.36
Compound: O=C(CCCCCCC(=O)Nc1ccccc1)NOCc1ccccc1
CC50 at 72 h [3]: > 100 µM
Activity (Leishmania infantum [4]): inactive
CC50 at 72 h [2]: > 100 µM

pIC50 (Leishmania infantum [1]; [12]): 5.98
Compound: CCCCc1ccc(C(=O)NCC(=O)NOC(c2ccccc2)(c2ccccc2)c2ccccc2)cc1
CC50 at 72 h [3]: > 100 µM
Activity (Leishmania infantum [4]): inactive
CC50 at 72 h [2]: > 100 µM

pIC50 (Leishmania infantum [1]; [12]): 4.16
Compound: Cc1ccc(C(ONC(=O)CCCCCCC(=O)Nc2ccccc2)(c2ccccc2)c2ccccc2)cc1
CC50 at 72 h [2]: < 100 µM

pIC50 (Leishmania infantum [1]; [12]): 4.13
Compound: O=C(CCCCCCC(=O)Nc1ccccc1)NOC(c1ccccc1)(c1ccccc1)c1ccccc1Cl
CC50 at 72 h [2]: > 100 µM

Second part, the compound before the results:

Compound: N=C(N)c1ccc(OCCCCCOc2ccc(C(=N)N)cc2)cc1
pIC50 (Leishmania infantum [1]; [12]): 5.82
selectivity ratio ([5]; read-out: Ratio CC50/IC50): 10
pIC50 (Leishmania donovani; Leishmania donovani, MON-2): 6.06
selectivity ratio ([6]; read-out: Ratio CC50/IC50): 7
pIC50 (Leishmania major; Leishmania major, MON-4): 6.02
pIC50 (Leishmania tropica; Leishmania tropica, MON-102): 6.21
selectivity ratio ([7]; read-out: Ratio CC50/IC50): 6
selectivity ratio ([8]; read-out: Ratio CC50/IC50): 4
CC50 at 72 h [2]: 5 to 20 µM

Compound: O=C(CCCCCCC(=O)Nc1ccccc1)NO [VORINOSTAT]
CC50 at 72 h [2]: 5 to 20 µM

Compound: MEGLUMINE ANTIMONATE [listing 1 of 2 here]
Activity (Leishmania infantum [9]): 33%
Activity (Leishmania infantum [10]): 83%

Compound: COc1ccc(C(ONC(=O)CCCCCCC(=O)Nc2ccccc2)(c2ccccc2)c2ccc(OC)cc2)cc1
CC50 at 72 h [3]: < 1 µM
CC50 at 72 h [2]: < 1 µM

Compound: MEGLUMINE ANTIMONATE [listing 2 of 2 here]
pIC50 (Leishmania infantum [1]): 3.84
Ratio CC50/IC50 [5]: 2
pIC50 (Leishmania donovani): 4.02
Ratio CC50/IC50 [6]: 3
CC50 (L929): 273 µM
pIC50 (Leishmania major): 4.00
pIC50 (Leishmania tropica): 3.91
Ratio CC50/IC50 [7]: 3
Activity [11]: Toxic
Ratio CC50/IC50 [8]: 2
CC50 (BMDM): 200 to 500 µM
